Data set [1] in a line: Phase 2 Study 1042-SE-2001 open-label group, safety. Format: in vivo, human. The method, then: As of 22 Mar. 2019, 5 subjects were enrolled into the Study 1042-SE-2001 open-label group under the original protocol that limits daily Captisol exposure at 35 g/day. […] The initial EEG pattern post-infusion initiation was described by study physicians as a “light” burst suppression that was maintained for several hours in all subjects. […] It was observed that when GNX exposure was lowered (20 mg/hr for 2 hours and ending with 10 mg/hr for the remaining 18 hours on Day 1) in order not to exceed this limit, seizure control could not be maintained and seizure activity (but not SE) re-occurred as evidenced by EEG changes. […] Seizure activity relapsed when plasma concentrations of GNX decreased <500 ng/mL in 4 out of 5 subjects.
Subject 015-101 was a person who presented with focal convulsive SE due to a tumor (Day 1). Recent medical history included convulsive seizures, SE, and Glioblastoma multiform of parietal lobe. Subject was administered levetiracetam for SE and lorazepam, diazepam, dexamethasone, and multiple doses of levetiracetam for seizure control prior to study enrollment. On Day 3, the subject was enrolled in the study and started on IV GNX 30 mg bolus dose plus continuous infusion (85 mg/hr). At the start of dose initiation the subject was alert. […] They were arousable to voice but required continuous stimulation to stay awake or follow commands. They maintained their airway and was able to endorse that the numbness had resolved and reported that they no longer felt twitches. […] The subject had significant direction-changing nystagmus and complained of blurry vision. […] During the next 2 hours the subject remained somnolent and was becoming increasingly restless. As per the protocol, GNX was decreased to 40 mg/hr at 2 hours post dose initiation. Approximately 10 to 15 minutes after the infusion rate was decreased to 40 mg/hr, the subject's arousal improved, they became conversational, and wanted to eat. They had no seizures at this time. Vital signs remained stable. During the GNX infusion, concomitant lacosamide was increased due to increased numbness. […] Once the GNX taper was completed the investigator reported there were no sequelae.
Under the protocol amended with the 50 g/day Captisol limit, 1 subject was enrolled in the open-label study as of 26 Mar. 2019. The subject presented with NCSE due to a tumor. The subject failed 3 second-line IV AEDs and qualified for the study based on the study's inclusion/exclusion criteria. Within 3 minutes after starting the IV GNX infusion, the RSE ceased and seizure protection was maintained for the remaining 48 hours of GNX treatment. […] Pharmacokinetic data were unavailable at the time of this report.

The nature of data set [2]: Safety in the ganaxolone clinical development program. Format: in vivo, human. An excerpt:
In the completed placebo-controlled Phase 1, 2, and 3 studies, 0.32% of subjects who received ganaxolone and 0.46% of subjects who received placebo developed elevated LFTs during the study (>3×ULN AST and/or ALT). A subject participating in the ganaxolone paediatric epilepsy study developed liver failure, which was not considered to be related to ganaxolone. The subject was diagnosed with short bowel syndrome, liver steatosis and IgG-cholangitis, which were considered to be the causal factors for the subject's liver failure. There have been no other cases of Hy's Law or liver failure in the ganaxolone development program. […] After cessation of the dosing, plasma ganaxolone levels are expected to drop rapidly, but it is possible that low sub-therapeutic levels persist for several days as ganaxolone is slowly released from tissues.
Ganaxolone has been administered to infants with severe forms of epilepsy as early as 4 months of age. In clinical trials involving administration of ganaxolone over several weeks, the study drug has been tapered off over a 1 to 2-week period.

Data set [3] deals with T1, progesterone receptor (Homo sapiens, UniProt P06401).
T1 sequence (P06401 1-933): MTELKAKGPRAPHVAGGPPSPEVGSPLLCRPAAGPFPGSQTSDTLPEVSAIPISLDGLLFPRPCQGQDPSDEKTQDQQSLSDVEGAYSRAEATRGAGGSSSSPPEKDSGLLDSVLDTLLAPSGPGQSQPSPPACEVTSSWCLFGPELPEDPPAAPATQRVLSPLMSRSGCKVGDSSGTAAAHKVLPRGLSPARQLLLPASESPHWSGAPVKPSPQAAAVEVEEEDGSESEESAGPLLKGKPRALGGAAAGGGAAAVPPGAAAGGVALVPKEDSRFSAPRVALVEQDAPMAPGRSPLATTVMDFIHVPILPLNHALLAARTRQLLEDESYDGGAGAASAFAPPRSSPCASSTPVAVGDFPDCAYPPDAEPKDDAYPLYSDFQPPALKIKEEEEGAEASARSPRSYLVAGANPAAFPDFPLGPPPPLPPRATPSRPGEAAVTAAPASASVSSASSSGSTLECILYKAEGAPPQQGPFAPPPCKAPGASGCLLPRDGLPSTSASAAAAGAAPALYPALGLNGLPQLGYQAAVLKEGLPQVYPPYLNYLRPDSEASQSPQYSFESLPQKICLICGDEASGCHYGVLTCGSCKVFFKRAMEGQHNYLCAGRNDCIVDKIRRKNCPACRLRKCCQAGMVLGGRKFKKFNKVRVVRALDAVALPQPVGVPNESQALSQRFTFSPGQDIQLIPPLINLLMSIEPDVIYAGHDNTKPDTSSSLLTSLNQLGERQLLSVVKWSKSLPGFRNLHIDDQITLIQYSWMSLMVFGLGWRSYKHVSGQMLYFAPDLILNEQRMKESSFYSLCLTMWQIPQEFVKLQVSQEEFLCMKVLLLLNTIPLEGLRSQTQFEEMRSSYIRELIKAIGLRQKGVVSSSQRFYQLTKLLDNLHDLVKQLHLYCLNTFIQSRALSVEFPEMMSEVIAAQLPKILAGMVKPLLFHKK
Nature of the data set: Progesterone receptor activation. As to conditions: directly or indirectly via metabolic conversion. An excerpt:
Ganaxolone (3α-hydroxy-3β-methyl-5α-pregnan-20-one) is a 3β-methylated synthetic analogue of the endogenous neurosteroid allopregnanolone with similar biological activity (Carter et al., (1997), The Journal of Pharmacology and Experimental Therapeutics, 280:1284-1295), but it is designed to not activate nuclear (classical) progesterone receptors. Also, in contrast to allopregnanolone, ganaxolone is orally bioavailable.

The test system of data set [4] is healthy subjects. As to the kind of experiment: Phase 1 IV ganaxolone pharmacodynamics (BIS, EEG) in healthy subjects. Format: in vivo, human. The procedure:
A Phase I clinical trial evaluating IV ganaxolone formulation was performed. The clinical trial was designed to investigate the safety, pharmacokinetics, and pharmacodynamics of an intravenous bolus of ganaxolone and continuous intravenous infusion of ganaxolone in 30 healthy subjects. Subjects were administered either an intravenous bolus of ganaxolone in an amount of 10-20 mg for a period of 2 minutes to 1 hour, or an intravenous bolus of ganaxolone in an amount of 6 mg for a period of 5 minutes with a continuous intravenous infusion in an amount of 20 mg/hr for a period of 4 hours.
There was little or no delay between the appearance of drug in plasma and a change in the BIS score.

Experimental findings from patent US12246026B2, “Ganaxolone for use in treatment of status epilepticus” (Marinus Pharmaceuticals, Inc., priority 2019, dated 2025) are described below.

Entries after “also recorded” stand apart in the source; their conditions may differ.

Consider `CC(=O)[C@H]1CC[C@H]2[C@@H]3CC[C@H]4C[C@](C)(O)CC[C@]4(C)[C@H]3CC[C@]12C` [Ganaxolone, 3α-hydroxy-3β-methyl-5α-pregnan-20-one], for which the “safety finding related to GNX” value in data set [1] (1 subject, amended protocol, concomitant AEDs) is reported as “increased sedation”. Also, in data set [1] (5 subjects), the “GNX-related cardiovascular events requiring pharmacological intervention” value is “no GNX-related cardiovascular events that required pharmacological intervention were observed” and the “intubation as a direct result of GNX therapy” value is on record as “no subjects had to be intubated as a direct result of GNX therapy”. In data set [1] (Subject 015-101, 30 mg bolus, 85 mg/hr, listed as GNX), the “adverse observations during infusion” value is “significant somnolence; also recorded: urinary retention with urgency”. Further, in data set [2] (clinical trials, tapered off over 1 to 2 weeks), the “withdrawal symptoms after cessation” value is “no reports of withdrawal symptoms”. Also, the “subjects who developed elevated LFTs (>3×ULN AST and/or ALT)” value in data set [2] (completed placebo-controlled Phase 1, 2 and 3 studies) is given as 0.32%. Besides, the “trends in ECG intervals, vital signs, physical or neurological examinations” value in data set [2] (development program overall) was “no clinically significant trends”. For the same compound, the “excretion to breast milk” value in data set [2] (ganaxolone and its metabolites) is “excreted to breast milk”. In addition, in data set [3], the “activation of the progesterone receptor” value is on record as “does not activate the progesterone receptor directly or indirectly”. The “EEG and BIS changes” value in data set [4] (Phase 1, FIG. 1) is given as “consistent with sedative/anesthetic effects”. Moreover, the “bispectral index (BIS) score versus plasma concentration” value in data set [4] (healthy subjects, IV) is listed as “higher plasma concentration was associated with lower BIS scores”.
